# Data taken from US7504096B1, “Methods for in vitro fertilization” (The United States of America as represented by the …, priority 1999, dated 2009).
# Tested on: ovariectomized mice
# Assay: Blastocyst implantation after embryo transfer in ovariectomized, steroid-primed mice (LIF as replacement for nidatory estrogen)
# Format: in vivo
# Conditions: for Nos. Implanted / Nos. Pregnant: E2 1 injection of 40 ng or LIF 3 injections of 5 μg 1 hour apart, analysis four days later
# Description: Mice were ovariectomized and allowed to recover for 18 days before starting experimental manipulation. Priming of the uterus by steroid hormones was started by the injection of 100 ng of Estrogen on each of 3 consecutive days. On the 6th day the mice were given a single injection of Progesterone in the form of Depo-Provera. Three days later an average of 6 blastocysts, either directly isolated from females or from cultures started the previous day when the embryos were at the 8-cell stage were surgically transferred to the right uterine horn. After the mice had recovered from surgery they were either given 1 injection of 40 ng of estrogen or 3 injections, 1 hour apart, of 5 μg LIF. Four days later (equivalent to Day 7-8 of pregnancy) the mice were sacrificed for analysis, and the implantation sites recovered.
# [1] = Blastocyst type at time of transfer: D4 cultured, E2 36 blastocysts (6 recipients), LIF 42 (7)
# [2] = Blastocyst type at time of transfer: D4 direct, 36 blastocysts in 6 recipients
substance,measurement,setting,value
"LIF: cytokine Leukemia Inhibitory Factor, recombinant, member of the IL-6 family of cytokines",Nos. Implanted,[1],16
same,Nos. Pregnant,[1],5
same,Nos. Implanted,[2],30
same,Nos. Pregnant,[2],6
same,Inducing embryo implantation in place of estrogen (result in words),"injection of LIF versus injection of estrogen, Table 1 protocol",can unequivocally replace the injection of estrogen for inducing embryo implantation
